This is an account of results in ChEMBL document CHEMBL4706643 (J Med Chem, 2021).

The subject of this assay is Hepatitis B virus. As to the kind of experiment: Antiviral activity against HBV infected in human HepG2-NTCP cells assessed as reduction in HBeAg secretion cells inoculated with virus for 4 hrs at room temperature and 37 degree C for 24 hrs followed inoculum changed with PMM medium for every 2 days until day 5 post infection by ELISA. In kind it is functional, organism-based.

The IC50 is the concentration that gives 50% inhibition. Regarding `CC[C@@H]1NC(=O)[C@H]([C@@H]2OC(C(C)=O)C[C@H]2C)N(C)C(=O)[C@H](C(C)C)N(C)C(=O)[C@H](CC(C)C)N(C)C(=O)[C@H](CC(C)C)N(C)C(=O)[C@@H](C)NC(=O)[C@H](C)NC(=O)[C@H](CC(C)C)N(C)C(=O)[C@H](C(C)C)NC(=O)[C@H](CC(C)C)N(C)C(=O)CN(C)C1=O` (stereo partly drawn), the half-inhibitory concentration (IC50) is more than 10 µM.
Take `C/C=C/C[C@@H](C)[C@@H](O)[C@H]1C(=O)N[C@@H](CC)C(=O)N(C)CC(=O)N(C)[C@@H](CC(C)C)C(=O)N[C@@H](C(C)C)C(=O)N(C)[C@@H](CC(C)C)C(=O)N[C@@H](C)C(=O)N[C@H](C)C(=O)N(C)[C@@H](CC(C)C)C(=O)N(C)[C@@H](CC(C)C)C(=O)N(C)[C@@H](C(C)C)C(=O)N1C` [CYCLOSPORINE]: the concentration for half-maximal inhibition (IC50) was determined as 5.78 µM.
Regarding `CC[C@@H]1NC(=O)[C@H]([C@@H]2O[C@@H](Sc3ccc(C)cc3)C[C@H]2C)N(C)C(=O)[C@H](C(C)C)N(C)C(=O)[C@H](CC(C)C)N(C)C(=O)[C@H](CC(C)C)N(C)C(=O)[C@@H](C)NC(=O)[C@H](C)NC(=O)[C@H](CC(C)C)N(C)C(=O)[C@H](C(C)C)NC(=O)[C@H](CC(C)C)N(C)C(=O)CN(C)C1=O`, the half-maximal inhibitory concentration (IC50) was 0.281 µM.
The same measure for `CC[C@@H]1NC(=O)[C@H]([C@@H]2O[C@@H](Sc3cccc(OC)c3)C[C@H]2C)N(C)C(=O)[C@H](C(C)C)N(C)C(=O)[C@H](CC(C)C)N(C)C(=O)[C@H](CC(C)C)N(C)C(=O)[C@@H](C)NC(=O)[C@H](C)NC(=O)[C@H](CC(C)C)N(C)C(=O)[C@H](C(C)C)NC(=O)[C@H](CC(C)C)N(C)C(=O)CN(C)C1=O`: 0.53 µM.
`CC[C@@H]1NC(=O)[C@H]([C@@H]2O[C@@H](Sc3ccc(OCc4ccccc4)cc3)C[C@H]2C)N(C)C(=O)[C@H](C(C)C)N(C)C(=O)[C@H](CC(C)C)N(C)C(=O)[C@H](CC(C)C)N(C)C(=O)[C@@H](C)NC(=O)[C@H](C)NC(=O)[C@H](CC(C)C)N(C)C(=O)[C@H](C(C)C)NC(=O)[C@H](CC(C)C)N(C)C(=O)CN(C)C1=O`: the IC50 is 0.256 µM.
The same measure for `CC[C@@H]1NC(=O)[C@H]([C@@H]2O[C@@H](Sc3cccc(OCc4ccc(F)cc4Cl)c3)C[C@H]2C)N(C)C(=O)[C@H](C(C)C)N(C)C(=O)[C@H](CC(C)C)N(C)C(=O)[C@H](CC(C)C)N(C)C(=O)[C@@H](C)NC(=O)[C@H](C)NC(=O)[C@H](CC(C)C)N(C)C(=O)[C@H](C(C)C)NC(=O)[C@H](CC(C)C)N(C)C(=O)CN(C)C1=O`: 0.403 µM; for `CC[C@@H]1NC(=O)[C@H]([C@@H]2O[C@@H](Sc3c(OC)cccc3OC)C[C@H]2C)N(C)C(=O)[C@H](C(C)C)N(C)C(=O)[C@H](CC(C)C)N(C)C(=O)[C@H](CC(C)C)N(C)C(=O)[C@@H](C)NC(=O)[C@H](C)NC(=O)[C@H](CC(C)C)N(C)C(=O)[C@H](C(C)C)NC(=O)[C@H](CC(C)C)N(C)C(=O)CN(C)C1=O`: 2.17 µM.
The same measure for `CC[C@@H]1NC(=O)[C@H]([C@@H]2OC(OCC(=O)OC)C[C@H]2C)N(C)C(=O)[C@H](C(C)C)N(C)C(=O)[C@H](CC(C)C)N(C)C(=O)[C@H](CC(C)C)N(C)C(=O)[C@@H](C)NC(=O)[C@H](C)NC(=O)[C@H](CC(C)C)N(C)C(=O)[C@H](C(C)C)NC(=O)[C@H](CC(C)C)N(C)C(=O)CN(C)C1=O` (stereo partly drawn): more than 10 µM; for `C=C(C)C1C[C@@H](C)[C@H]([C@H]2C(=O)N[C@@H](CC)C(=O)N(C)CC(=O)N(C)[C@@H](CC(C)C)C(=O)N[C@@H](C(C)C)C(=O)N(C)[C@@H](CC(C)C)C(=O)N[C@@H](C)C(=O)N[C@H](C)C(=O)N(C)[C@@H](CC(C)C)C(=O)N(C)[C@@H](CC(C)C)C(=O)N(C)[C@@H](C(C)C)C(=O)N2C)O1` (stereo partly drawn): more than 10 µM; for `CC[C@@H]1NC(=O)[C@H]([C@@H]2OC(OCCC(=O)OC)C[C@H]2C)N(C)C(=O)[C@H](C(C)C)N(C)C(=O)[C@H](CC(C)C)N(C)C(=O)[C@H](CC(C)C)N(C)C(=O)[C@@H](C)NC(=O)[C@H](C)NC(=O)[C@H](CC(C)C)N(C)C(=O)[C@H](C(C)C)NC(=O)[C@H](CC(C)C)N(C)C(=O)CN(C)C1=O` (stereo partly drawn): 9.26 µM.
Consider `CC[C@@H]1NC(=O)[C@H]([C@@H]2O[C@@H](Sc3cccc(O)c3)C[C@H]2C)N(C)C(=O)[C@H](C(C)C)N(C)C(=O)[C@H](CC(C)C)N(C)C(=O)[C@H](CC(C)C)N(C)C(=O)[C@@H](C)NC(=O)[C@H](C)NC(=O)[C@H](CC(C)C)N(C)C(=O)[C@H](C(C)C)NC(=O)[C@H](CC(C)C)N(C)C(=O)CN(C)C1=O`, for which the IC50 is 1.65 µM.
As to `CC[C@@H]1NC(=O)[C@H]([C@@H]2O[C@H](Sc3ccc(OC)cc3)C[C@H]2C)N(C)C(=O)[C@H](C(C)C)N(C)C(=O)[C@H](CC(C)C)N(C)C(=O)[C@H](CC(C)C)N(C)C(=O)[C@@H](C)NC(=O)[C@H](C)NC(=O)[C@H](CC(C)C)N(C)C(=O)[C@H](C(C)C)NC(=O)[C@H](CC(C)C)N(C)C(=O)CN(C)C1=O`, the half-maximal inhibitory concentration (IC50) was found to be 1.7 µM.
Turning to `CC[C@@H]1NC(=O)[C@H]([C@@H]2O[C@@H](Sc3ccc(OC)c(OC)c3)C[C@H]2C)N(C)C(=O)[C@H](C(C)C)N(C)C(=O)[C@H](CC(C)C)N(C)C(=O)[C@H](CC(C)C)N(C)C(=O)[C@@H](C)NC(=O)[C@H](C)NC(=O)[C@H](CC(C)C)N(C)C(=O)[C@H](C(C)C)NC(=O)[C@H](CC(C)C)N(C)C(=O)CN(C)C1=O`, the IC50 stood at 0.346 µM.
As for `CC[C@@H]1NC(=O)[C@H]([C@@H]2O[C@@H](Sc3ccc(N4CCOCC4)cc3)C[C@H]2C)N(C)C(=O)[C@H](C(C)C)N(C)C(=O)[C@H](CC(C)C)N(C)C(=O)[C@H](CC(C)C)N(C)C(=O)[C@@H](C)NC(=O)[C@H](C)NC(=O)[C@H](CC(C)C)N(C)C(=O)[C@H](C(C)C)NC(=O)[C@H](CC(C)C)N(C)C(=O)CN(C)C1=O`, the half-inhibitory concentration (IC50) came to 1.27 µM.
Turning to `CC[C@@H]1NC(=O)[C@H]([C@@H]2O[C@@H](Sc3cccc(OCc4cccnc4)c3)C[C@H]2C)N(C)C(=O)[C@H](C(C)C)N(C)C(=O)[C@H](CC(C)C)N(C)C(=O)[C@H](CC(C)C)N(C)C(=O)[C@@H](C)NC(=O)[C@H](C)NC(=O)[C@H](CC(C)C)N(C)C(=O)[C@H](C(C)C)NC(=O)[C@H](CC(C)C)N(C)C(=O)CN(C)C1=O`, the half-inhibitory concentration (IC50) amounted to 0.269 µM.
Consider `CC[C@@H]1NC(=O)[C@H]([C@@H]2O[C@@H](Sc3cccc(OCC4CCOCC4)c3)C[C@H]2C)N(C)C(=O)[C@H](C(C)C)N(C)C(=O)[C@H](CC(C)C)N(C)C(=O)[C@H](CC(C)C)N(C)C(=O)[C@@H](C)NC(=O)[C@H](C)NC(=O)[C@H](CC(C)C)N(C)C(=O)[C@H](C(C)C)NC(=O)[C@H](CC(C)C)N(C)C(=O)CN(C)C1=O`, for which the concentration for half-maximal inhibition (IC50) worked out at 0.249 µM.
As to `CC[C@@H]1NC(=O)[C@H]([C@@H]2O[C@@H](Sc3cccc(OCc4ccncc4)c3)C[C@H]2C)N(C)C(=O)[C@H](C(C)C)N(C)C(=O)[C@H](CC(C)C)N(C)C(=O)[C@H](CC(C)C)N(C)C(=O)[C@@H](C)NC(=O)[C@H](C)NC(=O)[C@H](CC(C)C)N(C)C(=O)[C@H](C(C)C)NC(=O)[C@H](CC(C)C)N(C)C(=O)CN(C)C1=O`, the IC50 stood at 0.382 µM.
For the molecule `CC[C@@H]1NC(=O)[C@H]([C@@H]2O[C@@H](Sc3cccc(OCc4ccccc4F)c3)C[C@H]2C)N(C)C(=O)[C@H](C(C)C)N(C)C(=O)[C@H](CC(C)C)N(C)C(=O)[C@H](CC(C)C)N(C)C(=O)[C@@H](C)NC(=O)[C@H](C)NC(=O)[C@H](CC(C)C)N(C)C(=O)[C@H](C(C)C)NC(=O)[C@H](CC(C)C)N(C)C(=O)CN(C)C1=O`, the IC50 was found to be 0.318 µM.
